How the values were obtained:
[1] = tested on: breast cancer cells MDA-MB-231; assay: Growth of breast cancer cells MDA-MB-231; assay type: cell-based; conditions: 72 hours of incubation
Procedure: (§1) For the experiments shown in FIG. 1, cultured human Non Small Cell Lung Cancer cells (A549) in RPMI 1640 were used, supplemented with 10% foetal bovine serum and antibiotics, at 37° C. and 5% CO2. […] After treatment, cell count was performed and the study of the mechanisms involved in the antitumor activity of compounds was evaluated by flow cytometry. […] These values correspond to averages of three independent experiments.
(§2) These charts show the antitumor efficacy of the compounds of this invention against the growth of breast cancer cells, brain (glioma), and lung cancer. […] The other experimental conditions are identical to those described in the preceding paragraph.

[2] = tested on: brain cancer cell (glioma) U118; assay: Brain cancer (glioma) U118 cell growth; assay type: cell-based; conditions: 72 hours of incubation
Procedure: For the experiments shown in FIG. 1, cultured human Non Small Cell Lung Cancer cells (A549) in RPMI 1640 were used, supplemented with 10% foetal bovine serum and antibiotics, at 37° C. and 5% CO2. Cells were maintained in culture for 48 hours in the presence or absence of D-PUFAs and PUFAs indicated in Table 2 at a concentration of 250 µM. After treatment, cell count was performed and the study of the mechanisms involved in the antitumor activity of compounds was evaluated by flow cytometry. […] These values correspond to averages of three independent experiments.
as §2

[3] = tested on: lung cancer cells A549; assay: Growth of lung cancer cells A549 (IC50); assay type: cell-based, human; conditions: 72 hours of incubation
Procedure: as §1, §2

[4] = tested on: Spontaneously Hypertensive Rats (SHR); assay: Blood pressure of SHR rats (cuff-tail method); assay type: in vivo, rat; conditions: 200 mg/kg day p.o., 30 days, before treatment 214 mmHg
Procedure: (§3) In a separate experimental series, it was studied the effect of D-PUFA molecules of the present invention on blood pressure of SHR rats. In these animals both, blood pressure and levels of apolipoprotein AI (apoA-I) were measured. For these experiments Spontaneously Hypertensive Rats (SHR) were treated for 30 days with vehicle (water control) or compounds of the invention (200 mg/kg day, p.o.). At the end of this period, the animals' blood pressure and serum levels of apoA-I were measured. […] For these experiments, non-invasive methods for determining blood pressure (cuff-tail method) and gene expression for apoA-I (RT-PCR) described in the literature (Terés et al., 2008) were used. The usefulness of the molecules of the present invention for the treatment of cardiovascular diseases is reinforced by its capacity for reducing the levels of serum cholesterol and triglycerides (see below).
(§4) The average values of SHR before treatment were 214 mmHg and 100% respectively.

[5] = tested on: apolipoprotein AI (apoA-I); assay: Levels of apoA-I in SHR rats (RT-PCR); assay type: in vivo, rat; conditions: 200 mg/kg day p.o., 30 days, before treatment 100%
Procedure: as §3, §4

[6] = Serum cholesterol, triglycerides and glucose in SHR rats (colorimetric); assay type: in vivo, rat; conditions: 200 mg/kg daily p.o., 28 days, untreated rats 100%
Procedure: In a separate experimental series, SHR rats were treated with various compounds of the present invention (200 mg/kg daily, 28 days, p.o.) and the levels of cholesterol, triglycerides and glucose in serum were measured by colorimetric methods. It was observed that these compounds induce significant (and in many cases marked) reductions in the levels of these metabolites (Table 16).
Values are expressed as percent, and in untreated (control) rats values were always considered as 100%.

[7] = Lamellar-to-hexagonal (HII) transition temperature in DEPE model membranes by Differential Scanning Calorimetry; assay type: physicochemical; conditions: DEPE membranes, DEPE:D-PUFA 10:1 (mol:mol)
Procedure: The transition temperature was determined by Differential Scanning Calorimetry. The proportion DEPE:D-PUFA was 10:1 (mol:mol) in all cases. Lamellar-to-hexagonal transition is an important parameter that reflects relevant signalling properties of cell membranes. […] When this occurs, certain peripheral membrane proteins (such as G proteins, protein kinase C or Ras protein) can more easily bind to the membrane, while others have a poor interaction (e.g., the Gα-protein), so changes in the HII transition temperature are important in regulating cellular functions related to health and human therapy (Escriba et al., 1995, Vogler et al., 2004; Escriba, 2006).
Control values correspond to model membranes in the absence of fatty acids. The reduction in HII transition temperature obtained by using the D-PUFA of the invention indicates an increased induction of membrane discontinuities, generating anchoring sites in the membrane for peripheral proteins and leads to better regulation of cell signalling and, therefore, greater effectiveness in the control of certain diseases.

Row | SMILES | IC50 [1] [µM] | IC50 [2] [µM] | IC50 [3] [µM] | Blood pressure [4] [mm Hg] | Levels of apoA-I [5] [%] | Cholesterol in serum (top number) [6] [%] | Glucose in serum (bottom number) [6] [%] | Triglycerides in serum (central number) [6] [%] | Temperature of lamellar-to-hexagonal transition [7] [°C]
1 | CCCCCC=CCC=CCCCCCCC(C)C(=O)OCC (stereo not drawn) [182N1] | 297 | 247 | 329 | 187 | 159 | 92 | 90 | 93 | –
2 | CCCCCC=CCC=CCCCCCCC(CO)C(=O)O (stereo not drawn) [182P1] | 419 | – | 328 | 202 | 184 | – | – | – | –
3 | CCCCCC=CCC=CCC=CCCCC(OC)C(=O)O (stereo not drawn) [183G2] | 159 | 394 | 295 | – | – | – | – | – | 50.1
4 | CCC=CCC=CCC=CCCCCCCC(C)C(=O)OCC (stereo not drawn) [183N1] | 278 | 324 | 379 | 208 | 189 | 72 | 84 | 69 | –
5 | CCCCCC=CCC=CCC=CCCCC(C)C(=O)OCC (stereo not drawn) [183N2] | 186 | 385 | 255 | 194 | 296 | 89 | 92 | 85 | –
6 | CCC=CCC=CCC=CCCCCCCC(Cl)C(=O)OCC (stereo not drawn) [183O1] | 267 | 370 | 344 | – | – | – | – | – | 51.2
7 | CCC=CCC=CCC=CCCCCCCC(CO)C(=O)O (stereo not drawn) [183P1] | 349 | 285 | 317 | 201 | 178 | – | – | – | –
8 | CCCCCC=CCC=CCC=CCCCC(CO)C(=O)O (stereo not drawn) [183P2] | 214 | 389 | 272 | 187 | 347 | – | – | – | –
9 | CCC=CCC=CCC=CCCCCCCC(OP(=O)(OCC)OCC)C(=O)OCC (stereo not drawn) [183R1] | 305 | 307 | 258 | – | – | – | – | – | 51.8
10 | CCCCCC=CCC=CCC=CCCCC(OP(=O)(OCC)OCC)C(=O)OCC (stereo not drawn) [183R2] | 172 | 454 | 274 | – | – | – | – | – | 49.9
11 | CCCCCC=CCC=CCC=CCC=CCCC(O)C(=O)OC (stereo not drawn) [204D1] | 281 | 311 | 372 | – | – | – | – | – | 48.7
12 | CCCCCC=CCC=CCC=CCC=CCCC(O)C(=O)OCC (stereo not drawn) [204E1] | 299 | 224 | 475 | – | – | – | – | – | 48.4
13 | CCCCCC=CCC=CCC=CCC=CCCC(OC)C(=O)O (stereo not drawn) [204G1] | 372 | 342 | 427 | – | – | – | – | – | 49.6
14 | CCCCCC=CCC=CCC=CCC=CCCC(C)C(=O)OCC (stereo not drawn) [204N1] | 274 | 315 | 420 | 201 | 174 | 82 | 82 | 81 | –
15 | CCCCCC=CCC=CCC=CCC=CCCC(CO)C(=O)O (stereo not drawn) [204P1] | 370 | 291 | 387 | 203 | 153 | – | – | – | –
16 | CCCCCC=CCC=CCC=CCC=CCCC(OP(=O)(OCC)OCC)C(=O)OCC (stereo not drawn) [204R1] | 285 | 501 | 364 | – | – | – | – | – | 50
17 | CCC=CCC=CCC=CCC=CCC=CCCC(O)C(=O)OC (stereo not drawn) [205D1] | 2 | 467 | 364 | – | – | – | – | – | 47.5
18 | CCC=CCC=CCC=CCC=CCC=CCCC(O)C(=O)OCC (stereo not drawn) [205E1] | 284 | 513 | 413 | – | – | – | – | – | 46.7
19 | CCC=CCC=CCC=CCC=CCC=CCCC(OC)C(=O)O (stereo not drawn) [205G1] | 219 | 426 | 407 | – | – | – | – | – | 47.3
20 | CCC=CCC=CCC=CCC=CCC=CCCC(C)C(=O)OCC (stereo not drawn) [205N1] | 289 | 513 | 384 | 189 | 293 | 80 | 86 | 73 | –
21 | CCC=CCC=CCC=CCC=CCC=CCCC(CO)C(=O)O (stereo not drawn) [205P1] | 301 | 432 | 339 | 194 | 337 | – | – | – | –
22 | CCC=CCC=CCC=CCC=CCC=CCCC(OP(=O)(OCC)OCC)C(=O)OCC (stereo not drawn) [205R1] | 245 | 468 | 417 | – | – | – | – | – | 48.4
23 | CCC=CCC=CCC=CCC=CCC=CCC=CCC(O)C(=O)OC (stereo not drawn) [226D1] | 224 | 241 | 221 | – | – | – | – | – | 43.9
24 | CCC=CCC=CCC=CCC=CCC=CCC=CCC(O)C(=O)OCC (stereo not drawn) [226E1] | 207 | 265 | 209 | – | – | – | – | – | 42.9
25 | CCC=CCC=CCC=CCC=CCC=CCC=CCC(OC)C(=O)O (stereo not drawn) [226G1] | 213 | 278 | 273 | – | – | – | – | – | 44.1
26 | CCC=CCC=CCC=CCC=CCC=CCC=CCC(CO)C(=O)O (stereo not drawn) [226P1] | 250 | 290 | 291 | 193 | 382 | – | – | – | –
